For orientation: IC50 means the concentration needed to halve the response being measured.

In the first assay the target is T1, human glucagon receptor (Homo sapiens, UniProt P47871).
T1 construct: expressed in transfected cells; host or cells: BHK (baby hamster kidney) cells
T1 sequence (P47871 26-477): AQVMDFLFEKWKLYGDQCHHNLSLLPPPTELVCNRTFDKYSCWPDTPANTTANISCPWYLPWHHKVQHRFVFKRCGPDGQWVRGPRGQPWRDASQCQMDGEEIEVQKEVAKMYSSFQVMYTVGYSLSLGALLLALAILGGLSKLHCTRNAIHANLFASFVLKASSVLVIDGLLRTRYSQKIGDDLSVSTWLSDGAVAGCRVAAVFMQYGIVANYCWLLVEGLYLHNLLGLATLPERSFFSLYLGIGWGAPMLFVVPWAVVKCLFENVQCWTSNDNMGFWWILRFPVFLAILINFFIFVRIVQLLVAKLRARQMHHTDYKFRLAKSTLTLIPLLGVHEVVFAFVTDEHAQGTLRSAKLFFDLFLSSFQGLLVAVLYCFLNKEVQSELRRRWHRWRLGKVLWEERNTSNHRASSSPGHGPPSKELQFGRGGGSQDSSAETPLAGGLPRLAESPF
The assay can be described thus: Glucagon Binding Assay (III). The settings on record: BHK cell membranes, WGA SPA beads, 125I-glucagon; read-out: Glu Bd Assay (III) IC50. The protocol: BHK (baby hamster kidney cell line) cells were transfected with the human glucagon receptor and a membrane preparation of the cells was prepared.
All steps in the membrane preparation were kept on ice or performed at 4° C. BHK cells were harvested and centrifuged. […] The pellet was resuspended in homogenisation buffer, homogenised 2×10 sec (Polytron) and additional homogenisation buffer was added. […] (Polytron).
The glucagon binding assay was carried out in opti plates (Polystyrene Microplates, Packard). […] Finally 50 μL WGA beads containing 1 mg beads were transferred to the well. The assay was incubated for 4 hours on a shaker and then settled for 8-48 hours. The opti plates were counted in a Topcounter. Non-specific binding was determined with 500 nM of glucagon.
`O=C(Nc1nn[nH]n1)c1ccc(CN(C(=O)Nc2nc3ccc([N+](=O)[O-])cc3s2)c2ccc(C3CCCCC3)cc2)cc1` [Example 342, 4-[1-(4-Cyclohexylphenyl)-3-(6-nitrobenzothiazol-2-yl)ureidomethyl]-N-(2H-tetrazol-5-yl)benzamide]: the IC50 came to 376 nM.
Still for that read-out and setting: to `O=C(O)CCNC(=O)c1ccc(CN(Cc2ccc(Cl)c(Cl)c2)C(=O)Nc2ccc(OC(F)(F)F)cc2)cc1` [Example 432, 3-{4-[1-(3,4-Dichlorobenzyl)-3-(4-trifluoromethoxyphenyl)ureidomethyl]benzoylamino}propionic acid] belongs 1800 nM.
Turning to `CCOc1ccc(N(Cc2ccc(C(=O)NCCC(=O)O)cc2)C(=O)Nc2ccc(OC(F)(F)F)cc2)cc1` [Example 442, 3-{4-[1-(4-Ethoxyphenyl)-3-(4-trifluoromethoxyphenyl)ureidomethyl]benzoylamino}propionic acid], the concentration for half-maximal inhibition (IC50) was found to be 4100 nM.
In the case of `CC(C)(C)c1ccc(N(Cc2ccc(C(=O)Nc3nn[nH]n3)cc2)C(=O)c2cc3cc(OC(F)(F)F)ccc3[nH]2)cc1` [Example 559, 5-Trifluoromethoxy-1H-indole-2-carboxylic acid (4-tert-butylphenyl)-[4-(2H-tetrazol-5-ylcarbamoyl)benzyl]amide], the IC50 was 1090 nM.
Consider `O=C(Nc1nn[nH]n1)c1ccc(CN(C(=O)Nc2cccc(S(=O)(=O)N3CCc4ccccc43)c2)c2ccc(C3CCCCC3)cc2)cc1` [Example 267, 4-{1-(4-Cyclohexylphenyl)-3-[3-(2,3-dihydroindole-1-sulfonyl)phenyl]ureidomethyl}-N-(2H-tetrazol-5-yl)benzamide], for which the IC50 was 86 nM.
Same read-out and setting: to `CC1CCCC(N(Cc2ccc(C(=O)NCCC(=O)O)cc2)C(=O)Nc2ccc(Oc3ccccc3)cc2)C1` (centres unmarked) [Example 44, 3-{4-[1-(3-Methylcyclohexyl)-3-(4-phenoxyphenyl)ureidomethyl]benzoylamino}propionic acid] belongs 819 nM.
On to `CCCC1CCC(N(Cc2ccc(C(=O)NCCC(=O)O)cc2)C(=O)Nc2ccc(OC(F)(F)F)cc2)CC1` (centres unmarked) [Example 75, 3-{4-[1-(4-Propylcyclohexyl)-3-(4-trifluoromethoxyphenyl)ureidomethyl]benzoylamino}propionic acid], for which the IC50 is 177 nM.
The same measure, in the same setting: to `CC(C)c1noc(-c2cccc(NC(=O)N(Cc3ccc(C(=O)Nc4nn[nH]n4)cc3)c3ccc(C4CCCCC4)cc3)c2)n1` [Example 468, 4-{1-(4-Cyclohexylphenyl)-3-[3-(3-isopropyl-[1,2,4]oxadiazol-5-yl)phenyl]ureidomethyl}-N-(2H-tetrazol-5-yl)benzamide] belongs 23 nM; to `O=C(O)CCNC(=O)c1ccc(CN(C(=O)Nc2ccc(OC(F)(F)F)cc2)C2CCN(C(=O)C3CC3)CC2)cc1` [Example 381, 3-{4-[1-(1-Cyclopropanecarbonylpiperidin-4-yl)-3-(4-trifluoromethoxyphenyl)ureidomethyl]benzoylamino}propionic acid], 1980 nM; to `CC(C)(C)C1CCC(N(Cc2ccc(C(=O)Nc3nn[nH]n3)cc2)C(=O)CCCc2ccccc2)CC1` (centres unmarked) [Example 545, 4-([(4-tert-Butylcyclohexyl)-(4-phenylbutyryl)amino]methyl}-N-(2H-tetrazol-5-yl)benzamide], 47 nM.
For the molecule `CCCCC(CC)CN(Cc1ccc(C(=O)NCCC(=O)O)cc1)C(=O)Nc1ccc(Cl)cc1` (centres unmarked) [Example 38, 3-{4-[3-(4-Chlorophenyl)-1-(2-ethylhexyl)ureidomethyl]benzoylamino}propionic acid], the IC50 came to 928 nM.
As to `CC(C)(C)C1CCC(N(Cc2ccc(C(=O)Nc3nn[nH]n3)cc2)C(=O)c2cc(-c3ccc(Cl)cc3)cs2)CC1` (centres unmarked) [Example 564, 4-(4-Chlorophenyl)thiophene-2-carboxylic acid (4-tert-butylcyclohexyl)-[4-(2H-tetrazol-5-ylcarbamoyl)benzyl]amide], the IC50 is 98 nM.
For the molecule `O=C(Nc1nn[nH]n1)c1ccc(CN(C(=O)Nc2ccc(OC(F)(F)F)cc2)c2ccc(C3=CCCCC3)cc2)cc1` [Example 307, 4-[1-(4-Cyclohex-1-enylphenyl)-3-(4-trifluoromethoxyphenyl)ureidomethyl]-N-(2H-tetrazol-5-yl)benzamide], the IC50 came out at 50 nM.
Turning to `O=C(Nc1nn[nH]n1)c1ccc(CN(C(=O)Nc2cccc(OC(F)(F)F)c2)c2ccc(C3CCCCC3)cc2)cc1` [Example 344, 4-[1-(4-Cyclohexylphenyl)-3-(3-trifluoromethoxyphenyl)ureidomethyl]-N-(2H-tetrazol-5-yl)benzamide], the IC50 stood at 16 nM.
On to `CCCCN(C)C(=O)c1cccc(NC(=O)N(Cc2ccc(C(=O)Nc3nn[nH]n3)cc2)c2ccc(C3CCCCC3)cc2)c1` [Example 464, N-Butyl-N-methyl-3-{3-(4-cyclohexylphenyl)-3-[4-(2H-tetrazol-5-ylcarbamoyl)benzyl]ureido}benzamide], for which the IC50 is 95 nM.
Still for that read-out and setting: in the case of `CC(C)(C)C1CCC(N(Cc2ccc(C(=O)NCCC(=O)O)cc2)C(=O)Nc2ccc(F)c(C(F)(F)F)c2)CC1` (centres unmarked) [Example 71, 3-{4-[1-(4-tert-Butylcyclohexyl)-3-(4-fluoro-3-trifluoromethylphenyl)ureidomethyl]benzoylamino}propionic acid] it was 124 nM; in that of `CS(=O)(=O)c1cc(NC(=O)N(Cc2ccc(C(=O)Nc3nn[nH]n3)cc2)c2ccc(C3CCCCC3)cc2)ccc1OC(F)(F)F` [Example 314, 4-[1-(4-Cyclohexylphenyl)-3-(3-methylsulfonyl-4-trifluoromethoxyphenyl)ureidomethyl]-N-(2H-tetrazol-5-yl)benzamide], 62 nM.
On to `CC(C)(C)C1CCC(N(Cc2ccc(C(=O)NCCC(=O)O)cc2)C(=O)Oc2cc(C(F)(F)F)cc(C(F)(F)F)c2)CC1` (centres unmarked) [Example 403, 3-(4-{[(3,5-Bis(trifluoromethyl)phenoxycarbonyl)-(4-tert-butylcyclohexyl)amino]methyl}benzoylamino)propionic acid], for which the IC50 turned out to be 338 nM.
On the same count and under the same terms, in the case of `O=C(O)CCNC(=O)c1ccc(CN(CC(c2ccccc2)c2ccccc2)C(=O)/C=C/c2c(Cl)cccc2Cl)cc1` [Example 505, 3-(4-{[[3-(2,6-Dichlorophenyl)acryloyl]-(2,2-diphenylethyl)amino]methyl}benzoylamino)propionic acid] it was 449 nM.
In the case of `CC(C)(C)C1CCC(N(Cc2ccc(C(=O)Nc3nn[nH]n3)cc2)C(=O)CCC(=O)c2ccc(Cl)cc2)CC1` (centres unmarked) [Example 540, 4-({(4-tert-Butylcyclohexyl)-[4-(4-chlorophenyl)-4-oxobutyryl]amino}methyl)-N-(2H-tetrazol-5-yl)benzamide], the IC50 was 540 nM.
Still for that read-out and setting: in the case of `CC(C)(C)c1ccc(N(Cc2ccc(C(=O)Nc3nn[nH]n3)cc2)C(=O)Nc2cccc(C(=O)Oc3c(F)c(F)c(F)c(F)c3F)c2)cc1` [Example 457, 3-{3-(4-tert-Butylphenyl)-3-[4-(2H-tetrazol-5-ylcarbamoyl)benzyl]ureido}benzoic acid pentafluorophenyl ester] it was 841 nM.
Consider `O=C(Nc1nn[nH]n1)c1ccc(CN(CC(c2ccccc2)c2ccccc2)C(=O)c2cc(-c3ccc(Cl)cc3)cs2)cc1` [Example 566, 4-(4-Chlorophenyl)thiophene-2-carboxylic acid (2,2-diphenyl-ethyl)-[4-(2H-tetrazol-5-ylcarbamoyl)benzyl]amide], for which the IC50 was found to be 855 nM.
Take `CC(C)(C)c1ccc(N(Cc2ccc(C(=O)NCCC(=O)O)cc2)C(=O)Oc2cc(Cl)cc(Cl)c2)cc1` [Example 409, 3-(4-{[(4-tert-Butylphenyl)-(3,5-dichlorophenoxycarbonyl)amino]methyl}benzoylamino)propionic acid]: the IC50 is 520 nM.
The same measure, in the same setting: to `CCS(=O)(=O)c1cccc(NC(=O)N(Cc2ccc(C(=O)Nc3nn[nH]n3)cc2)c2ccc(C(C)(C)C)cc2)c1` [Example 454, 4-[1-(4-tert-Butylphenyl)-3-(3-ethylsulfonylphenyl)ureidomethyl]-N-(2H-tetrazol-5-yl)benzamide] belongs 214 nM.
Still for that read-out and setting: to `CCN(CC)C(=O)c1cccc(NC(=O)N(Cc2ccc(C(=O)Nc3nn[nH]n3)cc2)c2ccc(C(C)(C)C)cc2)c1` [Example 462, N,N-Diethyl-3-{3-(4-tert-butylphenyl)-3-[4-(2H-tetrazol-5-ylcarbamoyl)benzyl]ureido}benzamide] belongs 1160 nM.
As for `CC(Oc1ccc(Cl)cc1)C(=O)N(Cc1ccc(C(=O)Nc2nn[nH]n2)cc1)c1ccc(C2CCCCC2)cc1` (centres unmarked) [Example 491, 4-{[[2-(4-Chlorophenoxy)propionyl]-(4-cyclohexylphenyl)amino]methyl}-N-(2H-tetrazol-5-yl)benzamide], the IC50 turned out to be 264 nM.
On the same count and under the same terms, to `CC1CCCCC1N(Cc1ccc(C(=O)NCCC(=O)O)cc1)C(=O)Nc1ccc(Oc2ccccc2)cc1` (centres unmarked) [Example 48, 3-{4-[1-(2-Methylcyclohexyl)-3-(4-phenoxyphenyl)ureidomethyl]benzoylamino}propionic acid] belongs 1080 nM; to `CNS(=O)(=O)c1ccc(Cl)c(NC(=O)N(Cc2ccc(C(=O)Nc3nn[nH]n3)cc2)c2ccc(C3CCCCC3)cc2)c1` [Example 467, 4-[3-(2-Chloro-5-methylsulfamoylphenyl)-1-(4-cyclohexylphenyl)ureidomethyl]-N-(2H-tetrazol-5-yl)benzamide], 772 nM.

Still in this assay, the particulars now being: Glu Bd Assay (III) IC50 (nM), BHK cell membranes, WGA SPA beads, 125I-glucagon.
Turning to `CC(C)(C)[C@H]1CC[C@H](N(Cc2ccc(C(=O)NCC(=O)O)cc2)C(=O)Nc2ccc(OC(F)(F)F)cc2)CC1` [Example 95, 3-{4-[1-(trans-4-tert-Butylcyclohexyl)-3-(4-trifluoromethoxyphenyl)ureidomethyl]benzoylamino}acetic acid], the IC50 worked out at 1700 nM.

The values above are taken from patent US6875760B2 (Novo Nordisk A/S, priority 1999, dated 2005).
